Experimental data from patent US7524510B2, “Alkyl-glycoside enhanced vaccination” (The UAB Research Foundation, priority 2005, dated 2009).

Tests used:
[1] = tested on: mice; assay: Enhancement of potency of E. coli-vectored epicutaneous vaccine, co-administered without ablation of the stratum corneum; assay type: in vivo, mouse; settings: topical E. coli vector expressing tetC mixed with TDM, skin not ablated by brushing, sera 2 months postimmunization
Description: Preliminary tests of the ability of tetradecyl-β-D maltoside (purchased from Anatrace) to enhance the potency of an E. coli-vectored epicutaneous vaccine when co-administered without ablation of the stratum corneum were conducted. Specifically, mice were immunized by topical application of an E. coli vector expressing tetC mixed with TDM at the indicated concentration and sera were analyzed 2 months postimmunization.

[2] = tested on: mice; assay: Enhancement of potency of adenovirus-vectored epicutaneous vaccine, co-administered without ablation of the stratum corneum; assay type: in vivo, mouse; settings: topical adenovirus vector expressing tetC mixed with TDM, no ablation of stratum corneum, sera 1 month postimmunization
Description: Tests of the ability of TDM to enhance the potency of an adenovirus-vectored epicutaneous vaccine when co-administered without ablation of the stratum comeum were also conducted. Here, mice were immunized by topical application of an adenovirus vector expressing tetC mixed with TDM at the indicated concentration, and sera were analyzed 1 month postimmunization.

[3] = tested on: Mouse skin; assay: Permeabilization of stratum corneum, electron microscopy of cutaneous architecture; assay type: in vivo; settings: mouse skin ablated by mechanical brushing, topical TDM incubated 15 min with naked skin
Description: Mouse skin was ablated by mechanical brushing prior to topical application of TDM, followed by incubation of TDM at the indicated concentration with naked skin for 15 min, followed by examination of the cutaneous architecture under an electron microscope.

## CCCCCCCCCCCCCCO[C@@H]1O[C@H](CO)[C@@H](O[C@H]2O[C@H](CO)[C@@H](O)[C@H](O)[C@H]2O)[C@H](O)[C@H]1O [TDM, tetradecyl-β-D-maltoside]
[1]
  enhancement of the potency of an E. coli-vectored epicutaneous vaccine (sera analyzed): No increase over the control
[2]
  enhancement of the potency of an adenovirus-vectored epicutaneous vaccine (sera analyzed): No significant increase over the control
[3]
  effect on stratum corneum (cutaneous architecture under electron microscope): permeablization of the stratum comeum
